The text below walks through data of PubChem BioAssay AID1259427 (Fisher Drug Discovery Resource Center, 2018).

Activity calls are given as the source filed them.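 Rule for the calls: active = EC50 at or below a set limit, with no effect in the paired counter-screen assay; inactive = the rest.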 Where only a bound is given, the exact number is not on record here.

The experiment deals with Aedes aegypti neuropeptide Y-like receptor 7 (NPYLR7). Put plainly: agonists of mosquito NPYLR7 receptor, confirmation, cell-based, Aedes aegypti, hit validation, mosquito biting behavior (AID 1259427).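 Note: potency of agonists that activate the receptor and raise the calcium signal.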 The conditions noted are these: HEK293T NPYLR7/Galpha15/GCaMP6s, calcium fluorescence.

In general, EC50 refers to the concentration needed to bring the measured effect to its halfway point. For `CCCN1CCc2c(sc3c2c(NC(CC)CO)nc2nnnn23)C1` (centres undefined), the EC50 was > 20 µM (inactive). Consider `N#Cc1c(N)nc2c(c1N)C(Sc1ccccc1)c1ccc(O)cc1O2` (centres undefined), for which the EC50 is < 0.039 µM (inactive). The value for `CNCC(O)c1ccc(O)c(O)c1` (centres undefined) was “inactive”; that for `CCN1C(=Cc2ccc3cc(C)ccc3[n+]2CC)Sc2ccccc21` was “inactive”; that for `CCN=c1cc2oc3cc(NCC)c(C)cc3c(-c3ccccc3C(=O)OCC)c-2cc1C` was “inactive”. Take `O=C(CN1C(=O)SC(=Cc2ccc(N3CCCCCC3)o2)C1=O)N1CCCCCC1`: the EC50 is > 20 µM (inactive). As to `COCCCN(Cc1ccc(C(C)(C)C)cc1)Cc1cccn1Cc1cccc(C)c1`, the EC50 was > 20 µM (inactive). `CSc1nnc2c(n1)OC(c1ccc(OC(=O)c3ccc(Br)cc3)cc1)Nc1ccccc1-2` (centres undefined): the EC50 is > 20 µM (inactive). Take `O=c1[nH]c(SCCO)nc2sc3c(c12)CCCC3`: the EC50 is > 20 µM (inactive). For `CS(=O)(=O)c1ccc(-c2cccc3c2OC(CNC(=O)c2cc[n+]([O-])cc2)C3)cc1` (centres undefined), the EC50 was 17.1 µM. The value for `CN(Cc1ccccc1)c1cc(Oc2cccc(Cl)c2)ncn1` was > 20 µM (inactive); that for `CCOC(=O)C1=C(O)/C(=C\c2ccc(N(C)C)cc2)SC1=Nc1ccc(OC)cc1OC` was > 20 µM (inactive); that for `CC1=NCCc2c1[nH]c1cc(O)ccc21` was “inactive”. The value for `COc1cc(C=C(C#N)S(=O)(=O)c2cc(Br)ccc2Br)ccc1O` was > 20 µM (inactive); that for `Clc1ccc(-c2noc3c2CN(CCn2cc(Cl)cn2)CC3)cc1` was > 20 µM (inactive); that for `FC(F)(F)c1ccc(-c2nc3ccc(Cl)cn3c2NCc2ccccc2)cc1` was > 20 µM (inactive).

As for `O=c1oc2cc(O)ccc2cc1-c1nc2ccccc2s1`, the EC50 entry was “inactive”. Consider `N#C/C(=C/c1ccc(N2CCCCC2)o1)c1cccc(F)c1`, for which the EC50 was > 20 µM (inactive). With `OCCN(CCO)c1nc(N2CCCCC2)c2nc(N(CCO)CCO)nc(N3CCCCC3)c2n1`, the EC50 entry is “inactive”. The value for `COc1ccc(-n2ccnc2-c2ccc(C#CC(C)(C)O)cc2)cn1` was > 20 µM (inactive); that for `O=c1nc2sc3[nH]c(=O)sc3cc-2s1` was < 0.039 µM (inactive). Consider `COc1ccc(-n2ccnc2-c2nc(-c3cccs3)oc2C)cn1`, for which the EC50 was > 20 µM (inactive). As for `CCCc1nn2c(N)c(C=C3C=C(Cl)C(=O)C(Cl)=C3)c(=O)nc2s1`, the EC50 was > 20 µM (inactive). The value for `Nc1ccc2c3c(cccc13)C(=O)NC2=O` was “inactive”.

Take `O=[N+]([O-])c1c[n+]([O-])n(-c2cccc(Cl)c2)n1`: the EC50 is > 20 µM (inactive). On to `CCN(CC)c1ccc(/C=C2/SC(=S)N(CC(=O)O)C2=O)cc1`, for which the EC50 entry is “inactive”. The value for `CSCCC(C(=O)O)N1C(=O)/C(=C/c2ccc(O)cc2)SC1=S` (centres undefined) was > 20 µM (inactive); that for `NC(=S)N/N=c1\oc2cc(O)ccc2cc1-c1nc2ccccc2[nH]1` was “inactive”; that for `Cc1ccc(-c2nc3nc(N)n(C)c(=O)c3[nH]c2=O)cc1` was > 20 µM (inactive).

Take `CN1C(=S)N(c2ccc3c(c2)CCC3)C(=O)/C1=C\c1ccncc1`: the EC50 is > 20 µM (inactive). As to `O=C1SC(Nc2ccc(Br)cc2)C(=O)N1c1ccccc1` (centres undefined), the EC50 was > 20 µM (inactive). The value for `COc1ccc(NC(=O)C2C=CCN2)cc1NC(=O)c1ccco1` (centres undefined) was > 20 µM (inactive); that for `COc1cc(C=C2N=C(c3ccc4c(c3)OCO4)OC2=O)cc2c1OCCO2` was > 20 µM (inactive). The value for `O=P1(Nc2cc(C(F)(F)F)ccc2Cl)C=C(c2ccccc2)OC(c2ccccc2)=C1` was > 20 µM (inactive). Turning to `COc1ccc(S(=O)(=O)NCC2CCCN(C(=O)CSc3ccccc3)C2)cc1` (centres undefined), the EC50 was 11.3 µM. The value for `N#Cc1cc2cc(Cl)cc(Cl)c2oc1=O` was “inactive”; that for `COC(=O)c1cnc(/C=C/c2cc(C)c(O)c(C)c2)s1` was > 20 µM (inactive); that for `NC(=O)CN1c2cccc3cccc(c23)S1(=O)=O` was > 20 µM (inactive).

As to `COc1ccc(C(=O)C=Cc2cc(Br)c(O)c(OC)c2)cc1F`, the EC50 result is “inactive”. For the molecule `O[C@@H]1CN(Cc2ccncc2Cl)CC[C@H]1c1ccc2c(c1)OCO2`, the EC50 is > 20 µM (inactive).

Turning to `O=C(C1=NN(c2ccccc2)C2C(=O)N(c3ccccc3)C(=O)C12)c1ccccc1` (centres undefined), the EC50 is > 20 µM (inactive).

Consider `CC1(C)CC(c2[nH]cnc2-c2ccccc2)CCO1` (centres undefined), for which the EC50 was > 20 µM (inactive). In the case of `CC(C)(C)NCC(O)c1ccc(O)c(CO)c1` (centres undefined), the EC50 was > 20 µM (inactive).

Regarding `CC1=CC(C)C(C(=O)O)C(C(=O)O)C1` (centres undefined), the EC50 is > 20 µM (inactive).

For `CCCC1CCC(C(=O)Nc2nnc(SCC)s2)CC1` (centres undefined), the EC50 is > 20 µM (inactive). As to `O=C(c1snc2c(=O)n(Cc3ccccc3)c(=O)[nH]c12)N1CCSCC1`, the EC50 was > 20 µM (inactive). With `COc1ccc(OC)c(CCNc2nc3cnc(-c4cc(OC)c(OC)c(OC)c4)cc3n2C)c1`, the EC50 was 12.7 µM. For the molecule `CCOc1cc(C=O)c(O)c(C=O)c1`, the EC50 result was “inactive”. The value for `CCOCCCN1C(=O)C(=Cc2ccccc2O)NC1=S` was “inactive”.

Regarding `Nc1c(S(=O)(=O)O)cc2c3c(cccc13)C(=O)N(CCO)C2=O`, the EC50 entry was “inactive”. The value for `CC(C)Nc1ccc(NS(=O)(=O)NCc2ccccc2)cn1` was > 20 µM (inactive); that for `Cc1ccc(Nc2nc(Nc3cccc(F)c3)nc3nccnc23)c(C)c1` was > 20 µM (inactive); that for `O=C(O)CCN1C(=O)/C(=C/c2ccc(O)cc2)SC1=S` was “inactive”.

In the case of `COc1cc(OC)c(OC)cc1/C=C1/SC(=S)N(CC(=O)O)C1=O`, the EC50 result was “inactive”. For `CC[n+]1c(/C=C/C=C2/N(C)c3ccccc3C2(C)C)sc2ccccc21`, the EC50 is > 20 µM (inactive).

On to `COc1ccc2c(C)nc(N=C(N)N)nc2c1`, for which the EC50 was 19.6 µM. As to `Cc1nc(Sc2nnc3ccccn23)c2c3c(sc2n1)CCCC3`, the EC50 was > 20 µM (inactive).

Turning to `O=C1NC(c2ccc3c(c2)OCO3)C(C(=O)c2ccccc2)C(O)(C(F)(F)F)N1` (centres undefined), the EC50 is > 20 µM (inactive). `Cc1cc(O)c(CN2CCN(C)CC2)c2c1C(=O)/C(=C/c1cccs1)O2`: the EC50 was > 20 µM (inactive).

Regarding `Cc1oc(-c2cccc(NC(=O)CC(C)C)c2)nc1CNC(=O)Cc1cc(F)cc(F)c1`, the EC50 was > 20 µM (inactive). In the case of `COc1cc(/C=C2\SC(=S)N(C(C)C(=O)O)C2=O)ccc1O` (centres undefined), the EC50 entry is “inactive”. The value for `O=[N+]([O-])c1cc(S(=O)(=O)Nc2cc(Cl)ccc2F)ccc1F` was > 20 µM (inactive); that for `CC(=O)OC(C)C[N+](C)(C)C` (centres undefined) was > 20 µM (inactive); that for `C[C@@H](NC(=O)CN1Cc2ccc(N3CCOCC3)nc2C1=O)c1ccccc1` was > 20 µM (inactive). On to `CN(Cc1ccccc1)C1=CC2=CC(=C(C#N)C#N)CCC2CC1` (centres undefined), for which the EC50 is 5.13 µM.

In the case of `CCN(CC)c1ccc2c(-c3ccccc3C(=O)O)c3ccc(=[N+](CC)CC)cc-3oc2c1`, the EC50 entry was “inactive”. The value for `O=C1c2ccccc2-c2nn(CN3CCN(c4ccccc4)CC3)c3cccc1c23` was > 20 µM (inactive); that for `N#C/C(=C/c1ccc(N2CCCCCC2)o1)c1ccc(F)cc1` was > 20 µM (inactive). For `O=C1/C(=C/c2cc3ccccc3o2)Oc2cc(O)ccc21`, the EC50 was > 20 µM (inactive).

In the case of `CCOc1ccc(C(=O)Nc2sc3c(c2-c2nc4ccccc4s2)CCN(C)C3)cc1`, the EC50 was > 20 µM (inactive). The value for `Cc1cc(O)c(CN2CCCC2)c2c1C(=O)/C(=C/c1cc3ccccc3o1)O2` was > 20 µM (inactive); that for `CCN1CC=C2C(C#N)C(=N)C(C#N)(C#N)C(c3cccs3)C2C1` (centres undefined) was > 20 µM (inactive). The value for `CCOc1cc2c(cc1C=C(C#N)C#N)OC(C)C2` (centres undefined) was > 20 µM (inactive); that for `Nc1nc(Cl)nc2c1ncn2[C@@H]1O[C@H](COP(=O)(O)OP(=O)(O)OP(=O)(O)O)[C@H](O)C1O` (some centres undefined) was < 0.039 µM (inactive); that for `CC1(C)CC(=O)C2C(=Nc3[nH]c(=S)[nH]c(=O)c3C2c2ccc3c(c2)OCO3)C1` (centres undefined) was > 20 µM (inactive). Turning to `O=C(O)c1csc(CSc2nnc(Cc3ccccc3)n2-c2cccc(C(F)(F)F)c2)n1`, the EC50 was > 20 µM (inactive). The value for `Cc1nc2ncccc2cc1C(=O)N1CCC2(CCNC(=O)CC2)CC1` was > 20 µM (inactive); that for `CC(C)C(=O)Nc1sc2c(c1-c1nc3ccccc3s1)CCN(C)C2` was > 20 µM (inactive); that for `Cc1[nH]c(/C=C2\C(=O)Nc3ccccc32)c(C)c1CCC(=O)O` was < 0.039 µM (inactive).

On to `O=C(O)c1csc(CSc2nnc(-c3ccncc3)n2-c2cccc(C(F)(F)F)c2)n1`, for which the EC50 is > 20 µM (inactive). Turning to `O=C(O)CSc1ccc2c3c(cccc13)C(=O)c1ccccc1-2`, the EC50 result was “inactive”. `N#C/C(=C\c1ccc(O)c(O)c1)C(=O)NCc1ccccc1`: the EC50 is > 20 µM (inactive). For `Nc1nc(Cl)nc2c1ncn2[C@@H]1O[C@H](CO)[C@@H](O)[C@H]1O`, the EC50 entry was “inactive”. The value for `COc1cccc(-n2c(O)c(C=Nc3cc(OC)ccc3OC)c3ccccc3c2=O)c1` was > 20 µM (inactive); that for `CCN(CC)C1=CC2=CC(=C(C#N)C#N)CCC2CC1` (centres undefined) was < 0.039 µM (inactive); that for `CCOC(=O)C1=C(C)NC(C)=C(C(=O)OCC)C1c1cc(Cl)ccc1OC(F)F` was > 20 µM (inactive). With `N#CC(=Cc1c(F)c(F)c(F)c(F)c1F)c1ccccn1`, the EC50 was > 20 µM (inactive).

With `CCOC(=O)c1ccccc1-c1c2ccc(=N)cc-2oc2cc(N)ccc12`, the EC50 is < 0.039 µM (inactive). As to `CCOc1cc(/C=C2/Oc3cc(O)ccc3C2=O)cc(Cl)c1OCC(=O)N(C)C`, the EC50 is 16.6 µM.
